Data published in patent US20250346571A1, “BICYCLIC DERIVATIVE PARP INHIBITOR AND USE THEREOF” (XIZANG HAISCO PHARMACEUTICAL CO., LTD., priority 2022, published 2025).

Key:
PARP-1 enzyme = PARP-1 enzyme (Homo sapiens (Human), UniProt P09874); assay: PARP-1 enzyme activity test (chemical fluorescence detection kit, BPS Bioscience); format: biochemical; settings: grades; read-out: PARP-1 enzyme activity IC50
Protocol: PARP-1 chemical fluorescence detection kit was purchased from BPS Bioscience. The histone solution in the kit was diluted 5× with 1×PBS, and 25 μL of the diluted histone solution was added to a microwell plate and incubated overnight at 4° C. After the incubation, the plate was washed three times with PBST (0.05% Tween-20). 100 μL of the blocking solution was added to the microwell plate and incubated at 25° C. for 90 minutes. After the incubation was completed, the plate was washed three times with PBST. 2.5 μL of compounds at different concentrations diluted in test buffer and 12.5 μL of substrate mixed solution (1.25 μL 10×PARP test buffer; 1.25 μL 10×PARP test mixed solution; 2.5 μL Activated DNA, 7.5 μL double-distilled water) were added to the microwell plate. The PARP-1 enzyme was diluted to 2 ng/μL, […] was added to the microwell plate, and the reaction system was incubated at 25° C. for 60 minutes.
After the incubation was completed, the plate was washed three times with PBST. Streptavidin-HRP was diluted 50× with a blocking solution, and 25 μL of the diluent was added to the microwell plate and incubated at 25° C. for 30 minutes. After the incubation, the plate was washed three times with PBST. ELISA ECL substrate A and substrate B were uniformly mixed at a ratio of 1:1 (v/v), 50 μL of the mixture was added to the microwell plate, and the chemiluminescence value was read.
The inhibition rate was calculated according to formula 1, where RLUsample was the readout of the compound well, RLUmax was the readout of the solvent control well, and RLUmin was the readout of the control well without the PARP-1 enzyme. Curve fitting was performed by four parameters (log(inhibitor) vs. response—Variable slope) using GraphPad Prism software, and the ICso value was calculated.
Inhibition %=(1−(RLUsample−RLUmin)/(RLUmax−RLUmin))×100% (formula 1)

MDA-MB-436 cells = assay: MDA-MB-436 cell activity test (CellTiter-Glo, 7 days); format: cell-based; settings: Homo sapiens
Protocol: Breast tumor cells MDA-MB-436 were purchased from ATCC, the culture medium was Leibovitz's L-15+10% FBS, and the cells were cultured in a CO2-free incubator at 37° C. On day 1, the cells in the exponential growth phase were collected, and the cell suspension was adjusted to 4000 cells/135 μL with the culture medium. 135 μL of the cell suspension was added to each well of a 96-well cell culture plate and incubated overnight. On day 2, compounds at different concentrations were added, and the plate was placed in the incubator and incubated for 7 days. After the incubation was completed, according to operation instructions for a CellTiter-Glo kit (Promega, G7573), 75 μL of CTG solution, which was already pre-melted and equilibrated to room temperature, was added to each well, and the mixture was uniformly mixed for 2 min using a microplate shaker. The plate was placed at room temperature for 10 min, and then […] were measured using an Envision2104 plate reader (PerkinElmer). The inhibition rate was calculated using formula (1), where RLUcompound was the readout of the drug treated group, RLUcontrol was the average value of the vehicle control group, and RLUblank was the average value of the cell-free well. The IC50 value was calculated using GraphPad Prism software

[1] = Pharmacokinetic test in rats; format: in vivo, SD rats
Protocol: 3.1 Experimental animal: male SD rats, about 220 g, 6-8 weeks old, 6 rats/compound, purchased from Chengdu Ddossy Experimental Animals Co., Ltd.
3.2 Experimental design: on the day of the experiment, 30 SD rats were randomly grouped according to their body weights. The animals were fasted with water available for 12 to 14 h one day before the administration and were fed 4 h after the administration.
Before and after the administration, 0.15 ml of blood was taken from the orbit of the animals under isoflurane anesthesia and placed in an EDTAK2 centrifuge tube. The blood was centrifuged at 5000 rpm and 4° C. for 10 min to collect plasma. The blood collection time points for the intravenous administration group and intragastric administration group were 0, 5 min, 15 min, 30 min, 1 h, 2 h, 4 h, 6 h, 8 h and 24 h. The brain tissues were collected 24 hours after administration, rinsed with cold physiological saline to remove the residual blood on the surface, drained out and then homogenized. Before analysis and detection, all samples were stored at −80° C. The samples were analyzed quantitatively by LC-MS/MS.

[2] = Pharmacokinetic test in beagle dogs; format: in vivo
Protocol: 5.1 Experimental animal: male beagle dogs, about 8-11 kg, 6 beagle dogs/compound, purchased from Beijing Marshall Biotechnology Co., Ltd.
5.2 Test method: on the day of the experiment, 6 beagle dogs were randomly grouped according to their body weights. The animals were fasted with water available for 12 to 14 h one day before the administration and were fed 4 h after the administration. The administration was performed according to Table 7.
(§1) Before and after the administration, 1 ml of blood was taken from the jugular veins or limb veins, and placed in an EDTAK2 centrifuge tube. The blood was centrifuged at 5000 rpm and 4° C. for 10 min to collect plasma. The blood collection time points for the intravenous administration group and intragastric administration group were 0, 5 min, 15 min, 30 min, 1 h, 2 h, 4 h, 6 h, 8 h, 10 h, 12 h, 24 h and 48 h. Before analysis and detection, all samples were stored at −80° C. The samples were analyzed quantitatively by LC-MS/MS.

[3] = Pharmacokinetic test in monkeys; format: in vivo, cynomolgus monkeys
Protocol: 6.1 Experimental animal: male cynomolgus monkeys, 3-5 kg, 3-6 years old, 4 monkeys/compound, purchased from Suzhou Xishan Biotechnology Inc.
6.2 Test method: On the day of the experiment, 8 monkeys were randomly grouped according to their body weights. The animals were fasted with water available for 14 to 18 h one day before the administration, and were fed 4 h after the administration.
as §1, with “1.0 mL” for “1 ml”, “limb” for “jugular”, “veins” for “veins or limb veins,”, “intravenous” for “intravenous administration group and intragastric”

[4] = male, SD, rat, iv, rats, i.v. 2.5 mg/kg, plasma
[5] = male, dog, iv, beagle dogs, i.v. (0.2 mg/kg), plasma
[6] = male, cynomolgus monkey, iv, monkeys, i.v. (0.5 mg/kg), plasma

PARP-1 enzyme, sequence (P09874 whole entry): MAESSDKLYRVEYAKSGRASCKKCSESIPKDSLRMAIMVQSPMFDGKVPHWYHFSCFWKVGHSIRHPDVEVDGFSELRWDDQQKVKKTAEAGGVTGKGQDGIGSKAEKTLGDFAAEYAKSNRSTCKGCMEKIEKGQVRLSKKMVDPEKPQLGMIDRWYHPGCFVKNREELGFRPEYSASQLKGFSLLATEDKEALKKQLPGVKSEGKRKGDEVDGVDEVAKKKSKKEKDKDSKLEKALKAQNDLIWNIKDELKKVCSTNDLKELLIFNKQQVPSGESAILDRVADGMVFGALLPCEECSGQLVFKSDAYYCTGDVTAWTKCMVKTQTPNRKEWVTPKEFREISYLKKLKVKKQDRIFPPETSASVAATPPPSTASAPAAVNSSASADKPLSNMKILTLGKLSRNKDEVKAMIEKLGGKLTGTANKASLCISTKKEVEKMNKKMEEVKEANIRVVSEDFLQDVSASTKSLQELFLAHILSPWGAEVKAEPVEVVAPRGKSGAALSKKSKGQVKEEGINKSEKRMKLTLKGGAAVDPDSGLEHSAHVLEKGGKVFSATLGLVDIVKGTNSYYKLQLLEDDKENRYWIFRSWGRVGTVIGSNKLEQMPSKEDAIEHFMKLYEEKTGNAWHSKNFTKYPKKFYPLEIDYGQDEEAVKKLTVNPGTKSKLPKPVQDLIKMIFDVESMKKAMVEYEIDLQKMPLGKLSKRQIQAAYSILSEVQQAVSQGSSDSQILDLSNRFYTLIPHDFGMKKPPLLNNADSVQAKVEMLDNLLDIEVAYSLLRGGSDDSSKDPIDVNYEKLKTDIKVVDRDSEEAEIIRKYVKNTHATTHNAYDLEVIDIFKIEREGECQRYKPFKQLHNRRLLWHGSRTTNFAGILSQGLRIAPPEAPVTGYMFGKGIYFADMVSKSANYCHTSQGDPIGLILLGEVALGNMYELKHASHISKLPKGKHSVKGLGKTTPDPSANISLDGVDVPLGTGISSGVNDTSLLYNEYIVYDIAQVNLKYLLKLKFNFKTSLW

IC50 (PARP-1 enzyme): < 5 nM
IC50 (MDA-MB-436 cells; MDA-MB-436, 168 h, 7 days incubation): 10.2 nM
pharmacokinetic characteristics in rats ([1]; conclusion in words): good pharmacokinetic characteristics
Kp at 24 h ([1]; male, SD, rat, brain/plasma, intravenous, 2.5 mg/kg, rats, 24 h after administration, read-out: Brain/Plasma Ratio (24 h)): 1.5
AUC(0-t) [1, 4]: 14500 ± 4760 ng·h/mL
clearance [1, 4]: 3.13 ± 1.2 mL/min/kg
Vd ([1]; male, SD, rat, iv, rats, i.v. 2.5 mg/kg, plasma, read-out: Vdss): 0.631 ± 0.12 L/kg
bioavailability ([1]; male, SD, rat, plasma, po, rats, i.g. 10 mg/kg): ≥ 98%
AUC(0-t) ([1]; male, SD, rat, po, rats, i.g. 10 mg/kg, plasma): 63300 ± 19600 ng·h/mL
pharmacokinetic characteristics in dogs ([2]; conclusion in words): good pharmacokinetic characteristics
AUC(0-t) [2, 5]: 1950 ± 474 ng·h/mL
clearance [2, 5]: 3.47 ± 0.98 mL/min/kg
Vd ([2]; male, dog, iv, beagle dogs, i.v. (0.2 mg/kg), plasma, read-out: Vdss): 1.52 ± 0.45 L/kg
bioavailability ([2]; male, dog, plasma, po, beagle dogs, i.g. (3 mg/kg)): ≥ 98%
AUC(0-t) ([2]; male, dog, po, beagle dogs, i.g. (3 mg/kg), plasma): 19000 ± 2890 ng·h/mL
pharmacokinetic characteristics in monkeys ([3]; conclusion in words): good pharmacokinetic characteristics
AUC(0-t) [3, 6]: 5470 ± 422 ng·h/mL
clearance [3, 6]: 1.5 ± 0.13 mL/min/kg
Vd ([3]; male, cynomolgus monkey, iv, monkeys, i.v. (0.5 mg/kg), plasma, read-out: Vdss): 0.419 ± 0.02 L/kg
bioavailability ([3]; male, cynomolgus monkey, plasma, po, monkeys, i.g. (3 mg/kg)): 63.2 ± 6.1%
AUC(0-t) ([3]; male, cynomolgus monkey, po, monkeys, i.g. (3 mg/kg), plasma): 20700 ± 1990 ng·h/mL
Compound: O=C(NC1CC1)c1ccc(N2CCN(Cc3ccc4nc(C(F)F)c(=O)[nH]c4c3F)CC2)c(F)n1 [Compound 12, N-cyclopropyl-5-(4-((2-(difluoromethyl)-5-fluoro-3-oxo-3,4-dihydroquinoxalin-6-yl)methyl)piperazin-1-yl)-6-fluoropicolinamide]
inhibition at 10 µM (MDA-MB-436 cells; 10 μM, MDA-MB-436 cells, read-out: Max inh. % 10 μM): 74.5%
